Here are results for three molecules from publication PMC11267536, “Gonococcal Mimitope Vaccine Candidate Forms a Beta-Hairpin Turn and Binds Hydrophobically to a Therapeutic Monoclonal Antibody” (JACS Au, 2024).

Test [1] deals with mAb 2C7. Briefly: STD NMR titration of CP2 into mAb 2C7. The following applies: STD-AF of methyl signals, one-site Langmuir model, saturation time 2 s, CP2 0.17-1.70 mM, 50 mM phosphate pH 7.4, H2O:D2O 90:10, 288 and 298 K, read-out: apparent equilibrium dissociation constant (KD). The class given is binding, Human-mouse chimeric. The procedure:
Chimeric mAb 2C7 and the sequence for the VH and VL regions of murine mAb 2C7 have been described previously.[18] Human-mouse chimeric mAb 2C7 was expressed in ExpiCHO cells and purified by affinity chromatography of tissue culture supernatants using Protein A/G agarose. Chimeric Fab 2C7 was expressed in CHO cells and purified by affinity chromatography with an anti-CH1 antibody (LakePharma).
(§1) NMR spectra were recorded on a Bruker AVANCE NEO 600-MHz equipped with a cryo probe, and data acquisition and processing were performed with TOPSPIN 4.1.1 software. Samples were prepared in H2O:D2O (90:10) buffered with 50 mM phosphate at pH 7.4, using 3 mm NMR tubes. NMR spectra were acquired using antibody concentrations of 10–20 μM, a peptide concentration of 1 mM, and an antibody:peptide ratio from 1:18 to 1:50, depending on the NMR experiments, and temperatures of 288 and 298 K; 0.05 mM amount of deuterated trimethylsilylpropanoic acid (TSP) was used as an internal standard.
STD NMR experiments were acquired with 32,000 data points and zero-filled up to 64,000 data points prior to processing. The protein resonances were selectively irradiated using 40 Gauss pulses with a length of 50 ms, setting the off-resonance pulse frequency at 40 ppm and the on-resonance pulse at 5.5 ppm. An excitation sculpting with gradient pulses (esgp) was applied for the suppression of water signals. […]

Test [2] deals with mAb 2C7. The test is described as follows: Isothermal titration calorimetry (ITC). In kind it is binding, Human-mouse chimeric. The following applies: 20 °C. The procedure: Isothermal titration calorimetry (ITC) experiments were carried out at 20 °C by using a MicroCal PEAQ-ITC instrument. mAb and peptide CP2 were both dialyzed against PBS pH 7.4 to avoid buffer mismatch between solutions. A solution of mAb with a concentration of 30 μM was loaded into the cell, and for each measurement, CP2 was added to the antibody solution through a microsyringe under a stirrer speed of 750 rpm. The titration was performed by adding 2 μL from a 1.67 mM CP2 solution for 19 injections using a time duration of 150 s. The data were analyzed and fitted by using the one-binding site model. The standard thermodynamic parameters of equilibrium were calculated by the following equation[45]: [drawing 2] 2 where ΔG is the Gibb’s free energy, Ka is the equilibrium constant, R is the gas constant, T is the temperature in kelvin, ΔH is the enthalpy change, and ΔS is the entropy change.
(In general: ITC needs no label: the signal is the heat of the interaction.)

In test [3] the test system is mAb 2C7. The test is described as follows: WaterLOGSY, CPMG and 1D NH chemical shift perturbation NMR. In kind it is binding, Human-mouse chimeric. The method, then:
as §1
The waterLOGSY experiments were performed on CP2 in the absence and presence of the mAb, using a conventional 1D NOE-ePHOGSY pulse sequence[36] provided in the Bruker library (ephogsygpno.2). The bulk water was selectively irradiated by 1D NOESY, and the solvent suppression was modified into a double pulsed-field gradient (DPFG) perfect-echo.[37] A mixing time of 2s was used in order to compare the WaterLOGSY experiment with the STD NMR experiment.
A mixture of 20 μM mAb2C7 and 1 mM CP2 peptide was prepared in deuterated phosphate saline buffer pH 7.4. Pseudo 2D experiments (cpmg_esgp2d) were used for detecting T2 spin–spin relaxation measurements. Data were analyzed by fitting the equation f(t) = Io × exp (−t/T) using Dynamics Center 2.7.1.

In test [4] the test system is gonococcal colonization. The following applies: cited from earlier work. An excerpt:
The spread of multidrug-resistant strains of Neisseria gonorrhoeae, the etiologic agent of gonorrhea, represents a global health emergency. Therefore, the development of a safe and effective vaccine against gonorrhea is urgently needed. […] Furthermore, we identified a peptide, cyclic peptide 2 (CP2) that mimicked the 2C7 LOS epitope, elic ... || Neisseria gonorrhoeae is a leading cause of sexually transmitted infections, which include urethritis, cervicitis, pharyngitis, locally invasive (epididymitis and salpingo-oophritis) and disseminated infections, and in rare cases, meningitis and endocarditis.[1] Infections in women are frequently asymptomatic, which augments the spread of bacteria among populations. Further, strains have emerged that are resistant to multiple antibiotics, which have the potential to lead to untreatable infections. Thus, the development of vaccines and novel therapeutics, including nonantibiotic approaches, is ... || Gonococcal lipooligosaccharide (LOS) is the most abundant component of the outer membrane. Antibodies against LOS can elicit complement-dependent bacterial killing, and therefore, LOS has been pursued as a vaccine candidate (reviewed in ref ([12])). A murine anti-LOS monoclonal antibody (mAb) 2C7 was isolated almost four decades ago.[13],[14] […]

For test [5], the system named is gonococci. The following applies: ref previous studies, cited from earlier work. An excerpt: The spread of multidrug-resistant strains of Neisseria gonorrhoeae, the etiologic agent of gonorrhea, represents a global health emergency. Therefore, the development of a safe and effective vaccine against gonorrhea is urgently needed. […] Furthermore, we identified a peptide, cyclic peptide 2 (CP2) that mimicked the 2C7 LOS epitope, elic ... || Neisseria gonorrhoeae is a leading cause of sexually transmitted infections, which include urethritis, cervicitis, pharyngitis, locally invasive (epididymitis and salpingo-oophritis) and disseminated infections, and in rare cases, meningitis and endocarditis.[1] Infections in women are frequently asymptomatic, which augments the spread of bacteria among populations. Further, strains have emerged that are resistant to multiple antibiotics, which have the potential to lead to untreatable infections. […] Therefore, a random peptide display library was used to identify a peptide, designated as PEP1, which bound mAb 2C7. […] Subsequently, PEP1 was covalently cyclized to yield CP2 and configured as a tetramer (designated tetra-MAP CP2 or TMCP2). TMCP2 adjuvanted wit ...

The subject of test [6] is gonococcal strains. The following applies: cited from earlier work. The source says: Gonococcal lipooligosaccharide (LOS) is the most abundant component of the outer membrane. Antibodies against LOS can elicit complement-dependent bacterial killing, and therefore, LOS has been pursued as a vaccine candidate (reviewed in ref ([12])). A murine anti-LOS monoclonal antibody (mAb) 2C7 was isolated almost four decades ago.[13],[14] 2C7 recognizes an LOS epitope that comprises lactose from heptose (Hep) II; lactose from HepI or GlcNAc may also contribute to the 2C7 epitope (see Supporting Information, Scheme S1). This mAb reacted with 94% of 68 gonococcal strains examined in the cerv ...

For test [7], the target named is human-mouse chimeric mAb 2C7 (mouse | human | mouse VL, human constant region). The test is described as follows: ITC; 20 °C, PBS pH 7.4; 30 uM mAb in the cell, 1.67 mM CP2 in the syringe, 19 injections of 2 uL; one-site model.
For test [8] the target is unchanged. The test is described as follows: NMR titration; STD NMR; CP2 (0.17 to 1.70 mM) titrated into a solution of mAb; 50 mM phosphate pH 7.4, H2O:D2O 90:10; saturation time 2 s; one-site Langmuir isotherm; apparent.

Values joined by “and” are separate entries in the source; they are usually repeats but may differ in a detail not shown here. Equal values may be shown once. Bridges are numbered along the chain shown (N, C = ends).

What is called stoichiometry N is a count of units in the complex or per binding partner.

For “Br-Ac-Gly-Pro-Ile-Pro-Val-Leu-Asp-Glu-Asn-Gly-Leu-Phe-Ala-Pro-Gly-Pro-Cys-Lys-OH (sidechain bridge or staple) [CP2]”, the Kd in test [1] came out at 61 µM. In addition, in test [2] (PBS pH 7.4), the ΔG was -6.24 kcal/mol; the “ΔG (exothermic process)” value is listed as under 0; the ΔH is -1.71 ± 0.0707 kcal/mol and -1.71 kcal/mol; the “−TΔS” value was -4.52 kcal/mol. In test [2] (one-site binding model, PBS pH 7.4), the “binding stoichiometry N (sites)” value was 1.89 ±4.4e-2 and 1.89. This molecule also showed a Kd in test [2] (one-site binding model, PBS pH 7.4, mAb 30 μM, 1.67 mM CP2, 19 injections of 2 μL) of 23 µM. In addition, in test [3] (20 μM mAb 2C7, 1 mM CP2, deuterated phosphate saline buffer pH 7.4), the “transverse relaxation time T2 (CPMG)” value was “indicative of complex formation”. Also, the WaterLOGSY binding entry in test [3] (change in peak phase from free to bound state, mixing time 2 s) is “the change in the peak phase passing from the free to the bound state is indicative of binding”. Besides, in test [3] (mixture of mAb 2C7 with CP2), the “1D NH chemical shift perturbation” value is “a few chemical shift perturbations”. Besides, in test [4] (mouse vaginal colonization model, ref previous studies), the active protection entry is given as “actively protected in a mouse vaginal colonization model”. In addition, in test [5] (mice), the bactericidal antibodies entry is listed as “elicited bactericidal antibodies in mice”.

B1: Murine mAb 2C7: murine anti-LOS monoclonal antibody 2C7 (antibody, V domains shown)
VH: EVQLQQSGPELVKPGSSVKISCKGSGYTFTDYNMEWVKQSHGKSLEWIGVINPNNRFTSYNQNFRGKATLTVDKSSSTAYMDLRSLTSEDSAVYFCAGSRWYQYDYWGQGTTLTVSS
VL: QVVVTQESALTTSPGETVTLTCRSSTGAVTTSNYANWVQEKPDHLFTGLIGGINNRAPGVPARFSGSLIADKAALTITGAQTEDEAIYFCALWYSNHWVFGGGTKLTVL
Take B1: the gonococcal strains recognized in test [6] (68 gonococcal strains examined in the cervical secretions of women) is given as 94%. The clinical isolates recognized in test [6] (75 minimally passaged clinical isolates, Nanjing, China) was 100%. In test [4] (mouse vaginal model), the “duration and burden of gonococcal colonization” value was “decreased the duration and burden of gonococcal colonization”. Moreover, in test [5] (against gonococci), the complement-dependent bactericidal activity entry is listed as “elicits complement-dependent bactericidal activity against gonococci”.

In test [7], GPIPVLDENGLFAPGPCK-OH (bridge N-17; not fully specified (N-terminus, bridges)) [cyclic peptide 2 (CP2)] registered a Kd of 23 µM, a dH of -1.71 kcal/mol and a stoichiometry N of 1.89 CP2 per mAb. Also, the Kd in test [8] was 61 µM.
